Where two headings read alike, the source gives them in different places.
Tests used:
[1] = type: in vivo, CD-1 mice
[2] = patients, racemic CIT; cited from earlier work
SERT = conditions: read-out: inhibitory constant (Ki) of SERT-mediated 5-HT uptake; cited from earlier work
[3] = Ex vivo transplacental transfer of CIT and DCIT; type: in vitro ADME, mice
[4] = cited from earlier work
[5] = type: in vivo, CD-1 mice; conditions: for half-life / AUC: female, CD-1, mouse, ip; for AUC: area under the concentration-time curve
[6] = CIT metabolism in fetal liver microsomal preparations; type: in vitro ADME, mice; conditions: 2 h incubation
[7] = CIT metabolism in placental microsomal preparations; type: in vitro ADME, mice; conditions: E14 and E18, 500 ng/mL CIT, 2 h
[8] = nonpregnant mice, fixed dose 0.6 mg CIT ip, serum
[9] = pregnant mice GD14, weight-adjusted dose 20 mg/kg CIT ip, maternal serum
[10] = pregnant mice GD18, weight-adjusted dose 20 mg/kg CIT ip, maternal serum
[11] = pregnant mice GD18FD, fixed dose 0.6 mg CIT ip, maternal serum

CNCCCC1(c2ccc(F)cc2)OCc2cc(C#N)ccc21 (stereo not drawn) [DCIT, desmethylcitalopram]
time to peak DCIT concentration in fetal serum ([1]; E14, after maternal 20 mg/kg CIT ip): 1 h | time to peak DCIT concentration in fetal serum ([1]; E18, after maternal 20 mg/kg CIT ip): 2.5 h | mean plasma S/R enantiomer ratio [2]: 0.7 | Ki (SERT): 14 nM | DCIT in fetal eluate during placental perfusion with CIT (placental metabolism) ([3]; E18 placenta perfused with 500 ng/mL CIT, 10 min intervals over 120 min): not detected | transplacental transfer efficiency of DCIT relative to CIT (fold less efficient) ([3]; ex vivo perfusion, E18 placentas): ~2 fold | partition coefficient [4]: 0.28

CN(C)CCCC1(c2ccc(F)cc2)OCc2cc(C#N)ccc21 (racemic) [CIT, (±)-citalopram]
increase in AUC in the GD18 group over the GD18FD dams ([5]; 20 mg/kg vs fixed 0.6 mg CIT ip, dose increased by 100%): 141% | half-life ([5]; maternal serum, 0.6 mg): 0.93 ± 0.06 h | AUC ([5]; maternal serum, 0.6 mg, pregnant mice GD18FD, fixed dose 0.6 mg CIT ip): 927 ± 28 ng·h/mL | half-life ([5]; maternal serum, 20 mg/kg): 1.08 ± 0.07 h | half-life ([5]; serum, 0.6 mg): 1.06 ± 0.04 h | AUC ([5]; serum, 0.6 mg, nonpregnant mice, fixed dose 0.6 mg CIT ip): 1230 ± 39 ng·h/mL | half-life ([5]; serum, 20 mg/kg): 1.05 ± 0.03 h | reduction in the AUC of serum CIT in GD18FD dams compared to nonpregnant mice ([5]; fixed dose 0.6 mg CIT ip): 25% | CIT absorption phase ([5]; nonpregnant mice, fixed dose 0.6 mg CIT ip): 1.67 | C0, peak concentration [5, 8]: 2050 ± 36 ng/mL | CL, clearance [5, 8]: 486 ± 9 mL·h | VD, volume of distribution [5, 8]: 29.3 ± 2.3 mL | AUCdn, dose-normalized AUC [5, 9]: 1.45 ± 0.10 (ng × h/mL)μg | C0, peak concentration [5, 9]: 2278 ± 31 ng/mL | CL, clearance [5, 9]: 689 ± 15 mL·h | VD, volume of distribution [5, 9]: 41.7 ± 2.5 mL | AUCdn, dose-normalized AUC [5, 10]: 1.86 ± 0.20 (ng × h/mL)μg | C0, peak concentration [5, 10]: 2353 ± 33 ng/mL | VD, volume of distribution [5, 10]: 50.9 ± 2.0 mL | CIT absorption phase ([5]; pregnant mice GD18FD, fixed dose 0.6 mg CIT ip): 1.76 | AUCdn, dose-normalized AUC [5, 11]: 1.48 ± 0.21 (ng × h/mL)μg | C0, peak concentration [5, 11]: 1667 ± 38 ng/mL | CL, clearance [5, 11]: 647 ± 20 mL·h | VD, volume of distribution [5, 11]: 36.0 ± 2.6 mL | increase in VD as gestation advanced from GD14 to GD18 ([5]; weight-adjusted dose 20 mg/kg CIT ip): 22% | time of peak fetal serum CIT concentration following maternal drug injection ([1]; E14 and E18 fetuses, maternal 20 mg/kg CIT ip): 15 min | DCIT generation from fetal liver microsomes ([6]; E14, 500 ng/mL CIT): no measurable DCIT generation | DCIT generation from fetal liver microsomes ([6]; E18, 500 ng/mL CIT): significant rate of CIT to DCIT conversion | CIT to DCIT metabolic capacity of placental microsomes [7]: no significant CIT to DCIT metabolic capacity
